The conditions of data set [1]: 101.33 kPa, Liquid; for viscosity: Capillary tube (Ostwald / Ubbelohde) method; for mass density: Vibrating tube method.
Data set [2] is described as follows: refractive index (Na D-line) (dimensionless). Conditions: 101.33 kPa, Liquid, Standard Abbe refractometry.

± gives the expanded uncertainty stated by the source.

What is called viscosity is the resistance of a fluid to flow. As a reminder, the mass density is the mass of a sample divided by its volume. In general, refractive index refers to a measure of how strongly the sample bends light.

For `ClCCCl` [1,2-dichloroethane], the viscosity came out at 0.7902 ± 0.0064 mPa·s in data set [1] (298.15 K), 0.7291 ± 0.006 mPa·s in data set [1] (303.15 K), 0.6739 ± 0.0056 mPa·s in data set [1] (308.15 K) and 0.6441 ± 0.0053 mPa·s in data set [1] (313.15 K). The mass density in data set [1] (298.15 K) stood at 1246.7 ± 0.4 kg/m3; in data set [1] (303.15 K) it was 1240.8 ± 0.4 kg/m3; in data set [1] (308.15 K), 1230.5 ± 0.4 kg/m3; in data set [1] (313.15 K) it was 1225.6 ± 0.4 kg/m3. Moreover, the refractive index amounted to 1.4416 ± 0.0005 in data set [2] (298.15 K), 1.4383 ± 0.0005 in data set [2] (303.15 K), 1.4336 ± 0.0005 in data set [2] (308.15 K) and 1.4311 ± 0.0005 in data set [2] (313.15 K).

For `Brc1ccccc1` [bromobenzene], the viscosity in data set [1] (298.15 K) was found to be 1.082 ± 0.0085 mPa·s; in data set [1] (303.15 K), 1.015 ± 0.008 mPa·s; in data set [1] (308.15 K) it was 0.954 ± 0.0076 mPa·s; in data set [1] (313.15 K), 0.878 ± 0.0071 mPa·s. For the same compound, the mass density in data set [1] (298.15 K) came out at 1489.4 ± 0.7 kg/m3; in data set [1] (303.15 K) it was 1481.1 ± 0.7 kg/m3; in data set [1] (308.15 K) it was 1475.8 ± 0.7 kg/m3; in data set [1] (313.15 K), 1467.3 ± 0.6 kg/m3. Besides, the refractive index came to 1.5578 ± 0.0005 in data set [2] (298.15 K), 1.5538 ± 0.0005 in data set [2] (303.15 K), 1.5514 ± 0.0005 in data set [2] (308.15 K) and 1.5468 ± 0.0005 in data set [2] (313.15 K).

As for `Clc1ccccc1` [chlorobenzene], the viscosity was determined as 0.7568 ± 0.0062 mPa·s in data set [1] (298.15 K), 0.7258 ± 0.0059 mPa·s in data set [1] (303.15 K), 0.677 ± 0.0056 mPa·s in data set [1] (308.15 K) and 0.624 ± 0.0052 mPa·s in data set [1] (313.15 K). Also, the mass density came out at 1100.4 ± 0.3 kg/m3 in data set [1] (298.15 K), 1094.9 ± 0.3 kg/m3 in data set [1] (303.15 K), 1089.4 ± 0.3 kg/m3 in data set [1] (308.15 K) and 1083.9 ± 0.3 kg/m3 in data set [1] (313.15 K). Besides, the refractive index in data set [2] (298.15 K) was 1.5222 ± 0.0005; in data set [2] (303.15 K) it was 1.5192 ± 0.0005; in data set [2] (308.15 K), 1.5163 ± 0.0005; in data set [2] (313.15 K), 1.5115 ± 0.0005.

The values are drawn from the NIST ThermoML archive (doi:10.1021/je100552a).
